The values below come from PMC6576746, “Rational discovery of dual-indication multi-target PDE/Kinase inhibitor for precision anti-cancer therapy using structural systems pharmacology” (PLoS Computational Biology, 2019).

One experiment deals with T1, MYLK4 (Homo sapiens, UniProt Q86YV6).
T1 sequence (Q86YV6 1-388): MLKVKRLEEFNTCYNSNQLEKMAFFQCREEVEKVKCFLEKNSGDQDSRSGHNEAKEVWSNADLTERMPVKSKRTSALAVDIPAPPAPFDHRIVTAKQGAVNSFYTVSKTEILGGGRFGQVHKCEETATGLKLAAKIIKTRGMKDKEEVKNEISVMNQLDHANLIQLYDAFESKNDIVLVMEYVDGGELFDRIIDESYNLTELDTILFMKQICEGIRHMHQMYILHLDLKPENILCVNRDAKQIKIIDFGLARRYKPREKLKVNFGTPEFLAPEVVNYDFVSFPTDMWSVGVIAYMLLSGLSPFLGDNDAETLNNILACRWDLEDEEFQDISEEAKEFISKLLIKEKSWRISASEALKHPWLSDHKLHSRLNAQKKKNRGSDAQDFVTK
As to the kind of experiment: KinomeScan competition binding assay. Set-up: DiscoverX KinomeScan panel kinase. Particulars: 100 μM levosimendan.

A further experiment addresses T2, RIOK3 (Homo sapiens, UniProt O14730).
T2 sequence (O14730 1-519): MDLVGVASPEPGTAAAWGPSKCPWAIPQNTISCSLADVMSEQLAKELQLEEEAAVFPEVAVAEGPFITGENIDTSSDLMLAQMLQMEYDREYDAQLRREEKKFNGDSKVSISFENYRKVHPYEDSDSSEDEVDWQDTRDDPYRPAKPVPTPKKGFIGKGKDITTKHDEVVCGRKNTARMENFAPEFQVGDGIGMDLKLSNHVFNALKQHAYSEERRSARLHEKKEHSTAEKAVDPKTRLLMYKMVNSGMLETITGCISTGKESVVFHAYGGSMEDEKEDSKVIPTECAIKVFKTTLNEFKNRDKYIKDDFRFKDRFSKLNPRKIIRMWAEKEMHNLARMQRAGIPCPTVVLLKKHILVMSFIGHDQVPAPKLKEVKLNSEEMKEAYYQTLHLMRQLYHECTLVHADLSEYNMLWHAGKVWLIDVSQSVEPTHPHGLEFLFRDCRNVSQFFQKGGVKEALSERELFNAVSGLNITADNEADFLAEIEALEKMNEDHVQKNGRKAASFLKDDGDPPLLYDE
Kind of experiment: KinomeScan competition binding assay. Set-up: DiscoverX KinomeScan panel kinase. The settings on record: 10 μM and 100 μM levosimendan.

Another experiment relates to RPMI 6666. As to the kind of experiment: cells. The arrangement: species or system panel of human cancer cell lines; Eurofins OncoPanel proliferation; nuclei count by high-content fluorescence imaging, 10-point dose response. The settings on record: Homo sapiens, RPMI-6666, 72 h, cell count, 3 days. On the procedure:
(§1) OncoPanel cancer cell proliferation assay was performed by Eurofins Panlabs, Inc. (Missouri, USA). Cancer cells were grown in RPMI 1640, 10% FBS, 2 mM L-alanyl-L-glutamine, 1 mM Na pyruvate, or a special medium. Cells were seeded into 384-well plates and incubated in a humidified atmosphere of 5% CO2 at 37°C. Compounds were added the day following cell seeding. At the same time, a time zero untreated cell plate was generated. After a 3-day incubation period, cells were fixed and stained to allow fluorescence imaging of nuclei. Levosimendan was serially diluted in half-log steps from 100 μM and assayed over 10 concentrations with a maximum assay concentration of 0.1% DMSO. Automated fluorescence microscopy was carried out using a Molecular Devices ImageXpress Micro XL high-content imager, and images were collected with a 4X objective. 16-bit TIFF images were acquired and analyzed with MetaXpress 5.1.0.41 software. Cell count EC50 is the test concentration at the curve inflection point (parameter C), or half the effective response. IC50 is the test compound concentration at 50% of the maximum possible response. GI50 is the concentration needed to reduce the observed growth by half (midway between the relative cell count at the curve maximum and at the time of compound addition). Activity area is an estimate of the integrated area above the response curve. Activity area values range from 0–10, where a value of zero indicates no inhibition of proliferation at all concentrations, and a value of 10 indicates complete inhibition of proliferation at all concentrations.

For another experiment, the system named is SW1783. Kind of experiment: cells. Set-up: species or system panel of human cancer cell lines; Eurofins OncoPanel proliferation; nuclei count by high-content fluorescence imaging, 10-point dose response. The settings on record: Homo sapiens, SW1783, 72 h, cell count, 3 days. The protocol:
as §1

The test system of the next experiment is KHOS-240S. As to the kind of experiment: cells. The arrangement: species or system panel of human cancer cell lines; Eurofins OncoPanel proliferation; nuclei count by high-content fluorescence imaging, 10-point dose response. Particulars: KHOS-240S, 72 h, cell count, 3 days. On the procedure: as §1
Another experiment deals with LS123. As to the kind of experiment: cells. Set-up: species or system panel of human cancer cell lines; Eurofins OncoPanel proliferation; nuclei count by high-content fluorescence imaging, 10-point dose response. Particulars: Homo sapiens, LS-123, 72 h, cell count, 3 days. On the procedure: as §1
The test system of the next experiment is CRO-AP2. As to the kind of experiment: cells. Particulars: Homo sapiens, CRO-AP2, 72 h, cell count, 3 days. The arrangement: species or system panel of human cancer cell lines; Eurofins OncoPanel proliferation; nuclei count by high-content fluorescence imaging, 10-point dose response. The protocol:
as §1

The next experiment deals with HT. As to the kind of experiment: cells. Set-up: species or system panel of human cancer cell lines; Eurofins OncoPanel proliferation; nuclei count by high-content fluorescence imaging, 10-point dose response. The settings on record: Homo sapiens, HT, 72 h, cell count, 3 days. The protocol:
as §1

A further experiment has as its system C-33A. As to the kind of experiment: cells. Set-up: species or system panel of human cancer cell lines; Eurofins OncoPanel proliferation; nuclei count by high-content fluorescence imaging, 10-point dose response. The settings on record: Homo sapiens, C-33-A, 72 h, cell count, 3 days. The protocol: as §1
For the next experiment, the target named is KIT (Homo sapiens, UniProt P10721). As to the kind of experiment: KinomeScan competition binding assay. Set-up: DiscoverX KinomeScan panel kinase. The settings on record: 10 μM levosimendan.
Chain of KIT (P10721 26-976): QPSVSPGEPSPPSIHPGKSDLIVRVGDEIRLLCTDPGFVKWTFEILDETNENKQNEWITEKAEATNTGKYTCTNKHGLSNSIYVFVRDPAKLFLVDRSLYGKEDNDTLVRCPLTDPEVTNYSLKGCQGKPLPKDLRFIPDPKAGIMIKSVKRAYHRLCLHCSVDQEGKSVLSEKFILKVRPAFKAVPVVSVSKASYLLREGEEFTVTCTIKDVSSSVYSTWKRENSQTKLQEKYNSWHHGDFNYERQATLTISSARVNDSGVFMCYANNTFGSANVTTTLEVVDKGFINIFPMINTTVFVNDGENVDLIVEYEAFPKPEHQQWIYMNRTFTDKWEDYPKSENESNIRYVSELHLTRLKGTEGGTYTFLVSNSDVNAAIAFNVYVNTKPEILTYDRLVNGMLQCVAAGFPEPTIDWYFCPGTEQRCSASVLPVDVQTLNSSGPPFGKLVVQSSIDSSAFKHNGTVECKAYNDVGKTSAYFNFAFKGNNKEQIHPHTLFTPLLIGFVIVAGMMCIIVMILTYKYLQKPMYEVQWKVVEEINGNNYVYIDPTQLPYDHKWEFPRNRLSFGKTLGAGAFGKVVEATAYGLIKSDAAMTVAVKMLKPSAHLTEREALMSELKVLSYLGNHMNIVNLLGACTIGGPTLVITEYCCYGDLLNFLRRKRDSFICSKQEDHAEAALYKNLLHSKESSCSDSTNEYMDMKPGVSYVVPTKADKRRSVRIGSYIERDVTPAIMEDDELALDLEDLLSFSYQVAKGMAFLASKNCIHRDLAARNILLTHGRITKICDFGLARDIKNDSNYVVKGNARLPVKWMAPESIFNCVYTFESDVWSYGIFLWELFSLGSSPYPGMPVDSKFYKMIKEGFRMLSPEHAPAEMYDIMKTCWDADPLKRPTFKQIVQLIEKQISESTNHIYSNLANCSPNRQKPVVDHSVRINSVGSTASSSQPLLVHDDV
[1] abbreviates: 50% of maximum possible response.

Regarding `C[C@@H]1CC(=O)NN=C1c1ccc(NN=C(C#N)C#N)cc1` [levosimendan], the “percentage control at 100 μM” value on MYLK4 is “two have intermediate binding affinities (MYLK4 and CAMK2)”. The percentage control entry at RIOK3 was “RIOK3, the closest homolog of RIOK1, showed the similar binding strength as RIOK1”. The IC50 in the experiment on RPMI 6666 (setting [1]) was found to be 17.2 µM; in the experiment on SW1783 (setting [1]), 82.1 µM; with KHOS-240S (setting [1]) it was 16.9 µM; in the experiment with LS123 (setting [1]), 53.3 µM; with CRO-AP2 (setting [1]), 10.3 µM; in the experiment with HT (setting [1]) it was 69.4 µM. For the same compound, in the experiment with C-33A (setting [1]), the IC50 stood at 14.5 µM. Moreover, the GI50 came to 11 µM in the experiment on RPMI 6666 (corrected for time zero); 35.6 µM in the experiment on SW1783 (corrected for time zero); 13.5 µM with KHOS-240S (corrected for time zero); 22 µM with LS123 (corrected for time zero); 8.29 µM with CRO-AP2 (corrected for time zero); 56.9 µM in the experiment with HT (corrected for time zero). The GI50 with C-33A (corrected for time zero) is 10.7 µM. Besides, the concentration for a half-maximal effect (EC50) with RPMI 6666 (curve inflection point) was 17.2 µM; in the experiment with SW1783 (curve inflection point), 82.1 µM; in the experiment on KHOS-240S (curve inflection point), 16.9 µM; in the experiment with LS123 (curve inflection point) it was 43.8 µM; with CRO-AP2 (curve inflection point) it was 9.97 µM; in the experiment with HT (curve inflection point), 69.4 µM. The same compound gave a concentration giving a half-maximal response (EC50) in the experiment with C-33A (curve inflection point) of 14.5 µM. The “percentage control at 10 μM” value on KIT was under 30.0%.

By IC50 is commonly meant the midpoint of a concentration-inhibition curve. High values mean weaker potency in that assay, low ones greater potency in that assay. By GI50 is commonly meant the concentration that inhibits growth by half. A higher GI50 goes with lower sensitivity of the cells. The term EC50 denotes the concentration that produces a half-maximal response. A high value points to a less potent agent.
